# Source: paper PMC10675777, “Experimental Evaluation of the Hypersensitivity Reactions of a New Glycopeptide Antibiotic Flavancin in Animal Models” (Pharmaceuticals, 2023)
# Where a name gives a salt, the structure may show the parent alone. Read-outs that look alike come from different tables or passages of the source.
# Legend:
# [1] = tested on: guinea pigs; conditions: Evans blue
# Procedure: In the study of active skin anaphylaxis, the sensitizing doses of flavancin were administered following the same scheme as described previously. The resolving dose, which consisted of a 0.1% solution of the dosage form of the drug in a 5% glucose solution with a volume of 0.05 mL per guinea pig, was administered intradermally 21 days after the last day of sensitization into a previously […] area of the flank skin. After 30 min, both the experimental and control groups of animals were intracardially injected with 0.5 mL of 1% Evans blue solution. Thirty minutes later, the animals were euthanized using ether anesthesia. The skin where the drug was intradermally administrated was then separated, and the diameter of the blue spot was measured and recorded. The collected quantitative data were statistically analyzed using a significance level of p < 0.05.
# [2] = tested on: concanavalin A; conditions: for The Mass of the Hind Leg Foot, Con A, Me, Mean ± SD / The Mass of the Hind Leg Foot, Saline, Mc, Mean ± SD: female CBA mice, n = 10, weighed 1 h later; for The Mass of the Hind Leg Foot, Con A, Me, Mean ± SD: Con A 0.5% into pad 1 h post-injection; for The Mass of the Hind Leg Foot, Saline, Mc, Mean ± SD: saline into contralateral pad; for RI (reaction index to concanavalin A) / Relative Increase Me Over Mc: mice; for Relative Increase Me Over Mc: (Me − Mc)/Mc × 100%
# Procedure: Its administration causes nonimmune activation of histamine release and inflammatory edema at the injection site.
# The experiment was carried out in accordance with «Guidelines on the assessment of allergic properties of drugs» [30]. Healthy female CBA mice weighing 20–24 g were divided into five groups, in cages of 10. […] 10 mL/kg of 5% glucose solution was administered to the animals of control group. One hour post-injection, 0.5% Con A in isotonic sodium chloride solution (0.01 mL/10 g body mass) was injected into the pad of the hind legs and the same volume of isotonic solution of sodium chloride was injected into the contralateral extremity of mice in the experimental and control groups. One hour later, the mice were euthanized. The hind legs were amputated at the hock joint and weighed. Relative increase Me over Mc in each group was calculated using the formula (Me − Mc)/Mc × 100%, where Me is the mass of the foot injected with Con A and Mc is the mass of the foot injected with saline solution. The RI of the group of animals receiving the drug, exceeding 20%, is considered significant and indicates an inflammatory reaction to concanavalin A.
# [3] = rat, in vivo, iv, 6.25 mg/kg
# Procedure: Experimental animals were divided into groups of six at each time point. Flavancin was administered intravenously into the tail vein at a single dose of 6.25 mg/kg (5 TD). Control rats were injected with glucose solution in the same volume. Blood was collected 5, 15, 30 min and 1 h after injection into heparinized plastic tubes. Blood samples were centrifuged for 20 min at 1500 rpm. The supernatant was poured into tubes and stored at −20 °C until chromatographic analysis. Quantitative determination of flavancin in blood samples was carried out by high-performance liquid chromatography method (HPLC) with fluorimetric detection.
# The method is based on the chromatography of specially prepared samples using a high-performance liquid chromatograph with a fluorescence detector and a reversed-phase column.
# Gradient separation was performed at 40 °C on a column Jupiter C18 (250 mm × 4.6 mm, particle size 5 microns; Security Guard Cartridge, Phenomenex, Torrance, CA, USA). […] Detection was carried out using a fluorescence detector (Waters 2475, Waters Associates, Framingham, MA, USA) (excitation—240 nm, emission—330 nm). […] The lower limit of the quantitative determination of flavancin was 0.8 µg/mL. […]
# Eight hundred µL of supernatant was replaced in 1.5 mL Eppendorf plastic tubes. […] The supernatant was analyzed by HPLC. […]
# [4] = tested on: guinea pigs; experiment: General anaphylaxis reaction (anaphylactic shock)
# Procedure: In order to determine the anaphylactogenic properties of flavancin, we selected two technically simple and easily reproducible tests: general anaphylaxis reaction and active skin anaphylaxis.
# Adult guinea pigs weighing 300–350 g were randomized into three groups (n = 10). […] These doses were determined based on the effectiveness in mice (ED100), with adjustments made using the coefficient of the animals’ body surface [28]. Saline was used as the control in the experiment. As for the reference agent, cattle serum was employed, with a dose of 0.1 mL for sensitizing doses and 0.5 mL for the resolving doses. The sensitizing doses were following a scheme: the first injection was given subcutaneously, while the subsequent two injections were administrated intramuscularly, with a 48 h interval between each injection. The resolving dose was administered intracardially 21 days after the last day of sensitization.
# [5] = tested on: histamine; experiment: Histamine in blood plasma after intravenous administration (Histamine-ELISA); conditions: for Histamine Level in plasma: female CBA mice, n = 10, single i.v., equitoxic doses (~MTD): vancomycin 300 mg/kg, flavancin 100 mg/kg, ELISA
# Procedure: The amount of histamine in the blood plasma of mice was detected 0.5, 1.5 and 3 min after a single intravenous administration of drugs.
# Female CBA mice weighing 18–20 g were divided into groups of 10 animals each. Flavancin was dissolved in 5% glucose and administrated via the tail vein to the mice at a dose equivalent to one TD (2.5 mg/kg) or MTD (100 mg/kg). […] Untreated animals were used as the control group.
# The animals were euthanized after 0.5, 1 and 1.5 min in an experiment using equiterapeutic doses and 0.5, 1.5 and 3 min for an experiment with the use of equitoxic doses, and the blood samples were collected after the drug administration. Next, 500 µL of whole blood, which had been drawn into 10 µL of heparin (30–50 IU) was centrifuged for 20 min at 2000 rpm. To perform the histamine analyses, 20 µL of plasma was mixed with dilutions of saline at ratios of 1:10 and 1:20. The amount of histamine was determined using an automatic biochemical and enzyme immunoassay analyzer (ChemWell, Awareness Technology, Inc., Palm City, FL, USA). The histamine detection was performed using the Histamine-ELISA reagent kit (Tecan Group Company, Männedorf, Switzerland).
# [6] = parameters: method as in PMID 1693055; conditions: cited from earlier work
# [7] = tested on: patients; conditions: patients treated with vancomycin; cited from earlier work
# Procedure: This reaction is typically associated with intravenous administration of doses exceeding 1000 mg and administrated at a rate of less than 60 min [5]. […] More recently, the mechanism behind some IgE-independent reactions, previously referred to as pseudo ...
compound,measurement,setting,value
"CN[C@H](CC(C)C)C(=O)N[C@H]1C(=O)N[C@@H](CC(N)=O)C(=O)N[C@H]2C(=O)N[C@H]3C(=O)N[C@H](C(=O)N[C@H](C(=O)NCCNCc4ccccc4F)c4cc(O)cc(O)c4-c4cc3ccc4O)[C@H](O[C@H]3C[C@](C)(N)[C@@H](O)[C@H](C)O3)c3ccc(cc3)Oc3cc2cc(c3O[C@@H]2O[C@H](CO)[C@@H](O)[C@H](O)[C@H]2O[C@H]2C[C@](C)(N)[C@@H](O)[C@H](C)O2)Oc2ccc(cc2Cl)[C@H]1O [flavancin, N-(2((2-fluorobenzyl)amino)ethyl)amide of eremomycin hydrochloride]",Blue Spot Diameter,"[1]; sensitizing 0.5 mg/kg x3, resolving 0.05 mL per pig of 0.1% solution 21 days after sensitization",2.3 ± 0.6 cm
same,Blue Spot Diameter,"[1]; sensitizing 1.5 mg/kg x3, resolving 0.05 mL per pig of 0.1% solution 21 days after sensitization",2.4 ± 0.5 cm
same,"The Mass of the Hind Leg Foot, Con A, Me, Mean ± SD",[2]; drug i.v. at MTD,151.5 ± 3.0 mg
same,"The Mass of the Hind Leg Foot, Saline, Mc, Mean ± SD",[2]; drug i.v. at MTD,139.3 ± 2.9 mg
same,"The Mass of the Hind Leg Foot, Con A, Me, Mean ± SD",[2]; drug i.v. at TD,154.3 ± 2.1 mg
same,"The Mass of the Hind Leg Foot, Saline, Mc, Mean ± SD",[2]; drug i.v. at TD,142.1 ± 2.0 mg
same,RI (reaction index to concanavalin A),"[2]; both doses studied (TD and MTD), below 20% means no pseudoallergic reaction",less than 20%
same,Relative Increase Me Over Mc,[2]; drug i.v. at MTD,8.8%
same,RI (reaction index to concanavalin A),"[2]; drug i.v. at MTD, RI exceeding 20% is significant",7.3%
same,Relative Increase Me Over Mc,[2]; drug i.v. at TD,8.5%
same,RI (reaction index to concanavalin A),"[2]; drug i.v. at TD, RI exceeding 20% is significant",3.7%
same,level at 1 h,[3],5000 ng/mL
same,"Effect (general anaphylaxis reaction, anaphylactic shock)","[4]; n = 10, sensitized with saline solution 1.0 mL x3, resolving flavancin 3.0 mg/kg intracardially",no
same,"Effect (general anaphylaxis reaction, anaphylactic shock)","[4]; n = 10, sensitizing 0.5 mg/kg (1TD) subcutaneous then twice intramuscularly, 48 h interval, resolving 3.0 mg/kg (6TD) intracardially 21 days after sensitization",does not induce anaphylactic shock and no
same,"Effect (general anaphylaxis reaction, anaphylactic shock)","[4]; n = 10, sensitizing 1.5 mg/kg (3TD) subcutaneous then twice intramuscularly, 48 h interval, resolving 3.0 mg/kg (6TD) intracardially 21 days after sensitization",does not induce anaphylactic shock and no
same,Histamine Level in plasma,[5]; 0.5 min,549.9 ± 92.6 µg/L
same,Histamine Level in plasma,[5]; 1.5 min,796.2 ± 56.3 µg/L
same,Histamine Level in plasma,[5]; 3 min,297.7 ± 54.9 µg/L
same,Histamine level in the blood compared to vancomycin,"[5]; mice, equivalent (therapeutic) dose, after 30 s",three times lower
vancomycin [reference compound],"The Mass of the Hind Leg Foot, Con A, Me, Mean ± SD",[2]; drug i.v. at MTD,149.4 ± 3.0 mg
same,"The Mass of the Hind Leg Foot, Saline, Mc, Mean ± SD",[2]; drug i.v. at MTD,131.8 ± 3.6 mg
same,"The Mass of the Hind Leg Foot, Con A, Me, Mean ± SD",[2]; drug i.v. at TD,158.1 ± 3.8 mg
same,"The Mass of the Hind Leg Foot, Saline, Mc, Mean ± SD",[2]; drug i.v. at TD,140.4 ± 2.3 mg
same,Vancomycin concentration in the blood after infusion,"[6]; 60-min intravenous infusion at a therapeutic dose, before the decrease",51.1 ± 9.2
same,Vancomycin concentration in the blood 1 h after infusion,[6]; 1 h after a 60-min intravenous infusion at a therapeutic dose,24.9 ± 2.9
same,Occurrence of Red Man Syndrome (non-IgE-mediated hypersensitivity),[7],4–47%
